Tests used:
sodium channel (site 2) = assay: SafetyScreen panel: sodium channel site 2; format: binding; details: 10 μM
Description: (§1) Compound 1 was tested at Eurofins Panlabs Discovery Services Taiwan, Ltd. for evaluation in their SafetyScreen™ panel of assays. This included selectivity assays at 87 targets including G-protein coupled receptors, nuclear receptors, other cell surface receptors, ion channels, enzymes, and transporters.

[1] = system: 87 targets including G-protein coupled receptors, nuclear receptors, other cell surface receptors, ion channels, enzymes, and transporters; assay: Eurofins Panlabs SafetyScreen off-target selectivity panel; details: single concentration 10 μM
Description: as §1

[2] = system: basal and ACTH-stimulated cortisol; assay: Phase 1 SAD study, basal cortisol and ACTH-stimulation test; format: in vivo, human; details: for % suppression in cortisol AUC: high dose ACTH (250 mcg) challenge
Description: (§2) This Phase 1, first-in-human, double-blind, randomized, placebo-controlled study will evaluate the safety of Compound 1 in healthy volunteers as well as the relationship between exposure and pharmacodynamic (PD) parameters, including ACTH-stimulated and endogenous cortisol secretion measured in blood, saliva, and urine. Results will be used to inform endpoints and other parameters in future later studies in patients with Cushing's disease (CD) or other diseases of excess adrenocorticotropic hormone (ACTH), including Congenital Adrenal Hyperplasia (CAH) and Ectopic ACTH Syndrome (EAS).
(§3) SAD/Part 1: ascending single dose, randomized, placebo-controlled, double-blind; 5 planned and up to 8 total cohorts, n=64. In each cohort, 6 subjects will receive Compound 1, 2 subjects will receive the placebo. Doses will escalate from 10 mg in cohort 1 to no more than 250 mg.
ACTH-stimulation tests are conducted while fasting. For PD analyses, blood samples are collected for measurement of serum cortisol, A4, 17-OHP, aldosterone, and DHEA. A summary of the procedure is as follows: In the “high dose” test, each subject is administered an IV 250 μg dose (for subjects >37 lbs) of cosyntropin (ACTH(1-24)) at the start of each test; in the “low dose” test, 1 mcg is administered instead. At 2 hours after study drug dosing/Time 0 (±5 minutes), collect blood sample. Within 5 minutes, administer cosyntropin IV infusion over 2 minutes. Collect blood sample at Time 30 minutes (5 minutes). Collect blood sample at Time 60 minutes (5 minutes).
Starting on Day −1 until EOS (or ET), fasting pre-dose blood samples are collected <15 minutes prior to dosing (˜0800 hr) for measurement of serum cortisol, A4, 17-OHP, aldosterone, ACTH(1 39), renin, and DHEAS. On Days in which ACTH-stimulation tests are conducted, these tests are done approximately 2 hours post-study drug dosing. Prior to cosyntropin administration, at 2 hours (15 minutes) post-dose, blood samples are collected for measurement of cortisol, A4, 17-OHP, aldosterone, and DHEA. Cosyntropin is then administered to define time 0 of the ACTH-stimulation test. At 2.5 hours (15 minutes) post-dose/30 minutes post-cosyntropin, blood samples are collected for measurement of cortisol. At 3 hours (15 minutes) post-dose/60 minutes post-cosyntropin, blood samples are collected for measurement of cortisol, A4, 17-OHP, aldosterone, and DHEA.
Compound 1 was also evaluated in the context of an ACTH-Stimulation Test, with oral Compound 1 or placebo being administered prior to the intravenous (IV) administration of cosyntropin (ACTH(1-24)). In the absence of pharmacologic intervention, IV administration of ACTH leads to the secretion of cortisol; whereas the pharmacologic intervention can suppress secretion of […] cortisol levels.

[3] = Phase 1 SAD study, pharmacokinetics in healthy volunteers; format: in vivo, human
Description: as §2, §3
Data shown are mean±SEM. All doses n=6. Cohort 4 (n=6, 80 mg) was evaluated in the high dose ACTH-stimulation test, while cohort 5 (n=6, 80 mg) was evaluated in the low dose ACTH-stimulation test.

[4] = Single oral dose ACTH challenge test in rats; format: in vivo, rat; details: rat, in vivo, male rats, at minimum effective dose 3 mg/kg oral
Description: (§4) The pharmacodynamic (PD) effects of Compound 1 were examined in rat by evaluating suppression of the corticosterone (cortisol in humans) response induced by administration of ACTH.
(§5) The ability of a single oral dose of Compound 1 to suppress corticosterone over 2 hours in response to an ACTH challenge test was assessed in male and female rats. Acute, IV administration of 1 μg/kg ACTH(1-24) induced a robust rise in plasma corticosterone levels compared to baseline in male and female rats.

[5] = system: ACTH-stimulated corticosterone secretion; assay: Single oral dose ACTH challenge test in rats; format: in vivo, rat; details: for suppression of corticosterone: 1 μg/kg IV ACTH(1-24), vs vehicle
Description: as §4, §5

[6] = system: calcium channel L-type (phenylalkylamine); assay: SafetyScreen panel: calcium channel L-type; format: binding; details: 10 μM
Description: as §1

MC4R = biological target: T1, MC4R (Homo sapiens, UniProt P32245); assay: Commercially available MC4R membrane binding assay; details: greater than highest concentration tested
T1 construct: purchased
Description: The selectivity over other human MCR subtypes was evaluated using commercially available MC1R, MC3R, MC4R, and MCSR membrane binding assays. The half maximal inhibitory concentration in the binding assays (IC50) were determined to be greater than the highest concentration tested, or >10,000 nM, >1000 nM, >10,000 nM and >1000 nM for MC1R, MC3R, MC4R and MCSR, respectively. Compound 1 is >2900-fold selective for MC2R versus the other human MCRs.

[7] = system: serotonin 5-hydroxytryptamine 1B receptor (5-HT1B); assay: SafetyScreen panel: 5-HT1B; format: binding; details: 10 μM
Description: as §1

T1 sequence (P32245 whole entry): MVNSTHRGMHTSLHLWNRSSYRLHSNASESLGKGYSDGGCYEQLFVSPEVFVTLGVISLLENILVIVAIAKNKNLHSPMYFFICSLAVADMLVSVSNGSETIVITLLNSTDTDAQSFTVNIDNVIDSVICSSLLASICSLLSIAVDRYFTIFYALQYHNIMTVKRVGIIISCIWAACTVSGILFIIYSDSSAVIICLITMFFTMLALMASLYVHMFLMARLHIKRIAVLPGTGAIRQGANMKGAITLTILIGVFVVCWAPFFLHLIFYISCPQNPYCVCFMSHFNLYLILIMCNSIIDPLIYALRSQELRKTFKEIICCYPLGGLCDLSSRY

With `CCOc1ccccc1-c1ccc(N2CCN(C(=O)C3(C(F)(F)F)CCC3)C[C@H]2CC)c(C(=O)N[C@@H]2CN3CCC2CC3)n1` [Compound 1, 6-(2-ethoxyphenyl)-3-((R)-2-ethyl-4-(1-(trifluoromethyl)cyclobutane-1-carbonyl)piperazin-1-yl)-N—((S)-quinuclidin-3-yl)picolinamide] the inhibition/activity (sodium channel (site 2)) was > 70%, the “activity across the panel” value [1] was “little activity across the panel” and the “% suppression in cortisol AUC” value ([2]; 10 mg) was “about 9%”. The “% suppression in cortisol AUC” value ([2]; 20 mg) was “about 22%”, the “% suppression in cortisol AUC” value ([2]; 40 mg) was “about 36%” and the “acute reduction of basal cortisol” value ([2]; 80 mg, 2 hours after administration) was 56%. For the same molecule, the “% suppression in cortisol AUC” value ([2]; 80 mg) was “about 41%”, the “reduction in cortisol levels” value ([2]; 80 mg, low dose ACTH (1 mcg) stimulation challenge) was 48% and the Tmax ([3]; human, in vivo, single oral dose, at efficacious doses) was ~1 h. For the same molecule, the half-life ([3]; human, in vivo, single oral dose, healthy volunteers) was ~24 h, the “oral bioavailability / exposure” value ([3]; single ascending oral doses) was “oral bioavailability with dose-proportional exposure” and the Cmax [4] was 149 ng/mL. The AUC(0-t) ([4]; read-out: AUC up to the last measurable concentration (AUC0-t)) was 1400 ng·h/mL, the suppression of corticosterone ([5]; female rats, 1 mg/kg oral) was 51% and the suppression of corticosterone ([5]; female rats, 3 mg/kg oral) was 71%. For the same molecule, the suppression of corticosterone ([5]; female rats, 10 mg/kg oral) was 88%, the “dose with statistically significant suppression of corticosterone” value ([5]; female rats, oral) was ≥ 1 mg/kg and the ACTH-stimulated corticosterone secretion ([5]; male and female rats, oral) was “dose-dependently suppressed”. For the same molecule, the suppression of corticosterone ([5]; male rats, 3 mg/kg oral) was 62%, the suppression of corticosterone ([5]; male rats, 10 mg/kg oral) was 78% and the “dose with statistically significant suppression of corticosterone” value ([5]; male rats, oral) was ≥ 3 mg/kg. For the same molecule, the minimum effective dose ([5]; male rats, oral, 1 μg/kg ACTH-stimulated acute assay) was 3 mg/kg, the inhibition/activity [6] was > 70% and the IC50 (MC4R) was > 10 µM. For the same molecule, the inhibition/activity [7] was > 70%.
